Source: publication PMC12829161 (BMC Microbiology, 2025)
Where a name gives a salt, the structure may show the parent alone. Bridge positions count the residues as written; N and C are the ends. Square brackets hold non-standard residues; d marks the D form. Peptide text beside a SMILES is read from it. * marks the point of attachment. X1 = CC[C@H](C)CCCCC(=O)*; Dab = NCC[C@H](N)C(=O)O

How the values were obtained:
Format in all cases: cell-based, Pseudomonas aeruginosa
PA14 biofilm [1] = tested on: PA14 biofilm
PAO1 biofilm [2] = tested on: PAO1 biofilm
PA14 biofilm [3] = tested on: PA14 biofilm; remark: listed apart in the source
PAO1 biofilm [4] = tested on: PAO1 biofilm; remark: listed apart in the source

CC[C@H](C)CCCCC(=O)N[C@@H](CCN)C(=O)N[C@H](C(=O)N[C@@H](CCN)C(=O)N[C@H]1CCNC(=O)[C@H]([C@@H](C)O)NC(=O)[C@H](CCN)NC(=O)[C@H](CCN)NC(=O)[C@H](CC(C)C)NC(=O)[C@@H](Cc2ccccc2)NC(=O)[C@H](CCN)NC1=O)[C@@H](C)O [Polymyxin B, Polymyxin B sulfate] (X1-[Dab]T[Dab][Dab][Dab][dF]L[Dab][Dab]T; lactam 4-C (inferred); N-terminus assumed)
Biofilm inhibition (CV) at sub-MICs and MICs vs untreated control (PA14 biofilm [1]): no significant biofilm inhibition | Biofilm viability (TTC), % of untreated control (PA14 biofilm [1]): approximately 6 (±6) % | Concentration at which total bacterial growth (OD600) is significantly inhibited (PA14 biofilm [1]): 2 µg/mL | Increase in bacterial cells (total growth, OD600) (PA14 biofilm [1]): No statistically significant increase | Biofilm viability (TTC), % of untreated control (PAO1 biofilm [2]): 65 (± 20) % | Concentration at which total bacterial growth (OD600) is significantly inhibited (PAO1 biofilm [2]): 4 µg/mL | Increase in biofilm mass (CV) vs untreated control (PAO1 biofilm [2]): over 200% | Total bacterial growth (OD600), % of untreated control (PAO1 biofilm [2]): approximately 170 (± 48) % | Reduction of total growth (OD600) vs untreated control (PA14 biofilm [3]): at least 70% | Reduction of total growth (OD600) vs untreated control (PAO1 biofilm [4]): at least 70%
